≈ marks a conversion by molar mass, not a printed value.
What was measured:
ciguatoxins = conditions: cited from earlier work
[1] = test system: voltage-dependent sodium channels; type: binding, rat
mouse = conditions: cited from earlier work
[2] = test system: neuroblastoma cell cultures; test: Inhibition of the cytotoxicity caused by extracts of toxic loach or toxic giant clams on neuroblastoma cell cultures (MTT, with ouabain/veratridine); type: cell-based
Description: The sample of salmon-pink loach (Ref15), supplied by the Louis Malardé Institute, was collected at Mururoa (Tuamotu Archipelago, French Polynesia). The sample of giant clam (GPS59) was collected at Raivavae (Austral Islands, French Polynesia). The toxicity of these two samples was confirmed beforehand on mice, by a cytotoxicity assay on neuroblastomas and radioligand assays with P-CTX-3.
The samples are stored at 4° C. The rosmarinic acid was obtained from Sigma.
96-well plates are prepared with 50 000 cells in 100 μL of medium per well. The outer wells are not used, to avoid variations of response due to edge effects. The cells are incubated for 24 h at 37° C. with 5% CO2 to give them time to adhere.
A mixture of ouabain (cardiac glycoside involved in cellular permeability, inhibiting the Na/K pump) and veratridine (polycyclic alkaloid which leads to persistent activation of the sodium channels), designated O/V hereinafter, in which the two active substances are present respectively at a final concentration of 0.33 and 0.033 mM in 20 μl, is added to the wells.
Ouabain is an inhibitor of ATPase Na^+/K^+, and veratridine is an activator of the sodium channels. The combined action of these two products induces a raised intracellular level of sodium and causes a change in the morphology of the cells, which greatly reduces their viability. […]
All the plates have a standard control of culture medium (cells only) and a control with cells in the presence of the O/V mixture. Rosmarinic acid is tested alone with the O/V mixture to record effects of cytotoxicity or of cellular proliferation as well as any interferences of coloration due to strong concentrations of products, which can lead to false positives in spectrophotometer readings. […]
After incubation for 1.5 h, the formazan crystals that formed are dissolved with 150 μL of DMSO (dimethylsulfoxide) for each well. After homogenization, the plates are read with a UV plate reader at 490 nm. Then the data are transferred and processed using Excel® and analyzed with the GraphPad Prism® software (version 4).

symptoms of ciguatera = conditions: cited from earlier work

## C=C/C=C\CC[C@H]1O[C@H]2CC[C@@]3(C)O[C@H]4[C@@H](O)C[C@@]5(C)O[C@@H](CC/C=C(C)/C(C)=C/C=O)[C@@H](C)C[C@@H]5O[C@@H]4C[C@@H]3O[C@@H]2CC[C@@]1(C)O [brevenal]
ciguatoxins
  inhibition of neurotoxic effects induced by the ciguatoxins: powerful inhibitor

## O=C(/C=C/c1ccc(O)c(O)c1)O[C@H](Cc1ccc(O)c(O)c1)C(=O)O [rosmarinic acid, (R)-a-[[3-(3,4-dihydroxyphenyl)-1-oxo-2E-propenyl]oxy]-3,4-dihydroxybenzenepropanoic acid]
[1]
  IC50 (50% inhibition of interaction with [^3H]PbTx-3): 880 µg/mL
  Ki: 1.43 mM
  measured radioactivity (replacement of tritiated brevetoxin on the sodium channels): decrease in the measured radioactivity
mouse; at 531 mg/kg i.v. in the mouse
  toxicity: does not display toxicity
mouse; intravenously (i.v.) in the mouse
  LD50: 531 mg/kg
[2]; Neuroblastoma cell, neuroblastomas, toxic extracts, estimated, read-out: IC50 (concentration for 50% decrease in cellular mortality caused by ciguatoxins and associated toxins)
  IC50: 500 to 1000 µg/mL (≈ 1390 to 2780 µM)
[2]; toxic giant clam extract GPS59 at 100 μg/ml, O/V mixture
  concentration from which cellular viability is significantly increased: ≥ 50 µg/mL
[2]; toxic giant clam extract GPS59 at 100 μg/ml, O/V mixture, rosmarinic acid 10 to 1000 μg/ml, 18 h, MTT
  effect on cellular viability of neuroblastomas (cytotoxicity of toxic giant clam extract): protective effect

## OC[C@@H](O)[C@@H](O)[C@H](O)[C@H](O)CO [mannitol, Mannitol]
Symptoms of ciguatera; administered 48 to 72 hours after intoxication
  effect on neurological and muscular disorders: capable of alleviating neurological and muscular disorders
Symptoms of ciguatera; blind clinical trials, mannitol and a saline solution, after 24 hours
  effect on the symptoms of ciguatera: did not, however, show a beneficial effect

Reference: patent publication US9060985B2, “Use of rosmarinic acid and the derivatives thereof to treat ciguatera” (priority 2009, dated 2015)
